This test deals with α4β7 integrin (Homo sapiens (Human), UniProt P13612+P26010). The experiment in a line: MAdCAM-1/α4β7 integrin binding inhibitory activity evaluation test in the presence of serum (2). To be noted: RPMI-8866 cells binding to mouse MAdCAM-1/Fc, same manner as Test (3), read-out: α4β7 Rank of activity with serum added. The test is classed as cell-based. Here is the method:
The ability of test substances to inhibit the binding of a human B cell line, RPMI-8866, which is known to express α4β7 integrin, to MAdCAM-1 was measured.
To 96-well microtiter plates, recombinant mouse MAdCAM-1/Fc (R&D systems) solution (1 μg/mL) diluted with buffer A (carbonate buffer, pH 9.6) was added at 50 μL/well, followed by incubation at 4° C. overnight. After washing once with PBS, Block Ace (Snow Brand Milk Products Company, Limited) was added at 150 μL/well, followed by incubation at room temperature for 2 hours. After removal, washing was conducted once with PBS.
100 μL of each test substance diluted with a binding buffer (DMEM containing 40 mM HEPES, 0.2% BSA, and 4 mM MnCl2) to various concentrations and 100 μL of RPMI-8866 cells (2×10^6 cell/mL) were added to plates coated with MAdCAM-1/Fc (5×10^5 cells/well) with human serum being contained at a final concentration of 50%, followed by incubation at 30° C. for 15 minutes to 60 minutes. After the cells were bound to each well, unbound cells were removed by washing with PBS. To the plates, buffer C (PBS containing 1.5% Triton X-100) was added at 50 μL/well to lyse the bound RPMI-8866 cells. To 30 μL of the cell lysate, 30 μL of Substrate Buffer (Promega, CytoTox 96 Non-Radioactive Cytotoxicity Assay) was added, and the reaction was allowed to proceed at room temperature in a dark place for 30 minutes. To each well, 30 μL of Stop Solution (Promega, CytoTox 96 Non-Radioactive Cytotoxicity Assay) was added, and the absorbance at 490 nm was measured by using a plate reader. Here, by the obtained absorbance, the activity of the lactate dehydrogenase (LDH) dissolved into the supernatant of each well was detected. In other words, the absorbance was proportional to the number of the RPMI-8866 cells bound to MAdCAM-1 and remaining on the plate. The test was duplicated. The binding ratios of the cells at various concentrations were determined, with the absorbance of a well containing no test substance taken as 100%. Then, the concentration IC50, at which 50% binding inhibition was achieved, was calculated.
The MAdCAM-1/α4β7 integrin binding inhibitory activity in the presence of serum was measured in the same manner as in Test (3) described above. […] The VCAM-1/α4β1 integrin binding inhibitory activity evaluation test and the MAdCAM-1/α4β7 integrin binding inhibitory activity evaluation test were carried out according to the methods described in Tests (1) and (2) described above.
Chain of α4β7 integrin (P13612 34-1032): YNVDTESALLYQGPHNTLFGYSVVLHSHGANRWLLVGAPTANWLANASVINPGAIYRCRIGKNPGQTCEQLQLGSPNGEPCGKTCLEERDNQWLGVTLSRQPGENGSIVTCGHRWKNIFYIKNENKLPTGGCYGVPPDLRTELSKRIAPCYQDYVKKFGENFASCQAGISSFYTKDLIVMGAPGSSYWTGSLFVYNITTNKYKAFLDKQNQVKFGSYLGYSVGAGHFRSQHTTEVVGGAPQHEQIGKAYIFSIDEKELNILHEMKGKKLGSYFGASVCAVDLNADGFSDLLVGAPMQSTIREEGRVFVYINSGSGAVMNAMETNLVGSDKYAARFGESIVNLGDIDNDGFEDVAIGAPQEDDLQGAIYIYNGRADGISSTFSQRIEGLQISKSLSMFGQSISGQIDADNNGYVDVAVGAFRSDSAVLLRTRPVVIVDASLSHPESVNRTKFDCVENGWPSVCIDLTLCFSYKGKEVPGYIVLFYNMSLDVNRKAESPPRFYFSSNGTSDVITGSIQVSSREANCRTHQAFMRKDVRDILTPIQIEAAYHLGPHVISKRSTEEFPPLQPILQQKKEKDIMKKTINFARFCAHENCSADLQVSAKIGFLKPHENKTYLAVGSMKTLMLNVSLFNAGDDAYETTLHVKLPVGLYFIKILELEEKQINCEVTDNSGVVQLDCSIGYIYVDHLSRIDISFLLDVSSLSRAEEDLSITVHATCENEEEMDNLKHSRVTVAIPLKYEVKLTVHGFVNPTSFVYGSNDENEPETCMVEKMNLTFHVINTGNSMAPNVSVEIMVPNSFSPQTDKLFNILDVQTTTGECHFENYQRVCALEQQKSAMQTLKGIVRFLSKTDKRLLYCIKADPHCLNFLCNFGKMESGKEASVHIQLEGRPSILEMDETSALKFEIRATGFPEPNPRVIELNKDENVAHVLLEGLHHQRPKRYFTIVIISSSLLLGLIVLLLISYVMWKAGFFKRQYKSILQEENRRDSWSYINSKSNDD
Chain of α4β7 integrin (P26010 20-798): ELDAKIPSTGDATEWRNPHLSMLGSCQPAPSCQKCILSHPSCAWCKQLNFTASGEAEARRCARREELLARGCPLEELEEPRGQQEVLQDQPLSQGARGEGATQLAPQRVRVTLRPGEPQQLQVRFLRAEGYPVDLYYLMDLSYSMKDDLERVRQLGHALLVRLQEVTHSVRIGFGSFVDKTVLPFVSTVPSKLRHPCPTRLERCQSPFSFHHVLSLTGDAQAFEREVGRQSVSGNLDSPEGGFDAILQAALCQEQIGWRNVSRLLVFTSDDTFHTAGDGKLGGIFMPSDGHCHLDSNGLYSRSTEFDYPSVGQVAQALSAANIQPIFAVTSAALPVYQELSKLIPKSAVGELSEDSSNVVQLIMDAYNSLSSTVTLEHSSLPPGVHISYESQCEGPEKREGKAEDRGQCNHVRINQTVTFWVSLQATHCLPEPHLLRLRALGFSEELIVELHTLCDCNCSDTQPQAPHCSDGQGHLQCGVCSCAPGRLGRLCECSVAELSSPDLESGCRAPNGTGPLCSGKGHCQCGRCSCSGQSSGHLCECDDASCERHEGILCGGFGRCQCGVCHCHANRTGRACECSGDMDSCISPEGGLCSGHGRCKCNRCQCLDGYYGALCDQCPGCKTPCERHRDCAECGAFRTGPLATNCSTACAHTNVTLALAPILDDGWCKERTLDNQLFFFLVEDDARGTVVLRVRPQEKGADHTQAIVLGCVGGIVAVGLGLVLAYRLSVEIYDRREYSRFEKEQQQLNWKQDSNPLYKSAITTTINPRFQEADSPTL
For `Cn1ccc(=O)n(-c2ccc(C[C@H](NC(=O)c3c(F)cc(NS(=O)(=O)c4ccc(C(=O)NCC5CC5)cc4)cc3F)C(=O)O)cc2)c1=O` [Example 157, N-(4-{[(4-{[(Cyclopropylmethyl)amino]carbonyl}phenyl)sulfonyl]amino}-2,6-difluorobenzoyl)-4-(3-methyl-2,6-dioxo-3,6-dihydropyrimidin-1(2H)-yl)-L-phenylalanine], the IC50 was in the range of 10 to 50 nM.

As for `Cc1cc(C(=O)NC(C)(C)C)ccc1S(=O)(=O)Nc1cc(F)c(C(=O)N[C@@H](Cc2ccc(-n3c(=O)ccn(C)c3=O)cc2)C(=O)O)c(F)c1` [Example 158, N-{4-[({4-[(tert-Butylamino)carbonyl]-2-methylphenyl}sulfonyl)amino]-2,6-difluorobenzoyl}-4-(3-methyl-2,6-dioxo-3,6-dihydropyrimidin-1(2H)-yl)-L-phenylalanine], the IC50 was at most 10 nM.

Consider `Cn1ccc(=O)n(-c2ccc(C[C@H](NC(=O)c3c(F)cc(NS(=O)(=O)c4ccc(-c5ncccn5)cn4)cc3F)C(=O)O)nc2)c1=O` [Example 159, N-(2,6-Difluoro-4-{[(5-pyrimidin-2-yl-pyridin-2-yl)sulfonyl]amino}benzoyl)-3-[5-(3-methyl-2,6-dioxo-3,6-dihydropyrimidin-1(2H)-yl)pyridin-2-yl]-L-alanine], for which the IC50 fell in the range of 10 to 50 nM.

For `Cn1ccc(=O)n(-c2ccc(C[C@H](NC(=O)c3c(F)cc(NS(=O)(=O)c4ccc(-n5cccc5)cn4)cc3F)C(=O)O)cc2)c1=O` [Example 162, N-[2,6-Difluoro-4-({[5-(1H-pyrrol-1-yl)pyridin-2-yl]sulfonyl}amino)benzoyl]-4-(3-methyl-2,6-dioxo-3,6-dihydropyrimidin-1(2H)-yl)-L-phenylalanine], the IC50 lay within 10 to 50 nM.

As for `Cn1c(=O)n(-c2ccc(C[C@H](NC(=O)c3ccc(NS(=O)(=O)c4ccc(-c5cncnc5)cn4)cc3F)C(=O)O)cc2)c(=O)c2ccncc21` [Example 163, N-(2-Fluoro-4-{[(5-pyrimidin-5-yl-pyridin-2-yl)sulfonyl]amino}benzoyl)-4-(1-methyl-2,4-dioxo-1,4-dihydropyrido[3,4-d]pyrimidin-3(2H)-yl)-L-phenylalanine], the IC50 is 10 to 50 nM.

For `CCNC(=O)c1ccc(S(=O)(=O)Nc2cc(F)c(C(=O)N[C@@H](Cc3ccc(-n4c(=O)ccn(C)c4=O)cc3)C(=O)O)c(F)c2)cn1` [Example 164, N-{4-[({6-[(Ethylamino)carbonyl]pyridin-3-yl}sulfonyl)amino]-2,6-difluorobenzoyl}-4-(3-methyl-2,6-dioxo-3,6-dihydropyrimidin-1(2H)-yl)-L-phenylalanine], the IC50 fell in the range of 10 to 50 nM.

Take `Cn1ccc(=O)n(-c2ccc(C[C@H](NC(=O)c3c(F)cc(NS(=O)(=O)c4ccc(C(=O)NC5CCCC5)cc4)cc3F)C(=O)O)cc2)c1=O` [Example 165, N-{4-[({4-[(Cyclopentylamino)carbonyl]phenyl}sulfonyl)amino]-2,6-difluorobenzoyl}-4-(3-methyl-2,6-dioxo-3,6-dihydropyrimidin-1(2H)-yl)-L-phenylalanine]: the IC50 was at most 10 nM.

As for `Cn1c(=O)n(-c2ccc(C[C@H](NC(=O)c3c(F)cc(NS(=O)(=O)c4ccc(C(=O)NC5CCCC5)cc4)cc3F)C(=O)O)cc2)c(=O)c2ccncc21` [Example 166, N-{4-[({4-[(Cyclopentylamino)carbonyl]phenyl}sulfonyl)amino]-2,6-difluorobenzoyl}-4-(1-methyl-2,4-dioxo-1,4-dihydropyrido[3,4-d]pyrimidin-3(2H)-yl)-L-phenylalanine], the IC50 lay in the range of 10 to 50 nM.

On to `Cn1ccc(=O)n(-c2ccc(C[C@H](NC(=O)c3c(F)cc(NS(=O)(=O)c4ccc(C(=O)NC(C)(C)C)cc4)cc3F)C(=O)O)cc2)c1=O` [Example 167, N-{4-[({4-[(tert-Butylamino)carbonyl]phenyl}sulfonyl)amino]-2,6-difluorobenzoyl}-4-(3-methyl-2,6-dioxo-3,6-dihydropyrimidin-1(2H)-yl)-L-phenylalanine], for which the IC50 is at most 10 nM.

On to `Cn1c(=O)n(-c2ccc(C[C@H](NC(=O)c3c(F)cc(NS(=O)(=O)c4ccc(C(=O)NC(C)(C)C)cc4)cc3F)C(=O)O)cc2)c(=O)c2ccncc21` [Example 168, N-{4-[({4-[(tert-Butylamino)carbonyl]phenyl}sulfonyl)amino]-2,6-difluorobenzoyl}-4-(1-methyl-2,4-dioxo-1,4-dihydropyrido[3,4-d]pyrimidin-3(2H)-yl)-L-phenylalanine], for which the IC50 was at most 10 nM.

Regarding `Cn1ccc(=O)n(-c2ccc(C[C@H](NC(=O)c3c(F)cc(NS(=O)(=O)c4ccc(C(=O)NC5CCCCC5)cc4)cc3F)C(=O)O)cc2)c1=O` [Example 169, N-{4-[({4-[(Cyclohexylamino)carbonyl]phenyl}sulfonyl)amino]-2,6-difluorobenzoyl}-4-(3-methyl-2,6-dioxo-3,6-dihydropyrimidin-1(2H)-yl)-L-phenylalanine], the IC50 was in the range of 10 to 50 nM.

Take `CCC(CC)NC(=O)c1ccc(S(=O)(=O)Nc2cc(F)c(C(=O)N[C@@H](Cc3ccc(-n4c(=O)ccn(C)c4=O)cc3)C(=O)O)c(F)c2)cc1` [Example 170, N-(4-{[(4-{[(1-Ethylpropyl)amino]carbonyl}phenyl)sulfonyl]amino}-2,6-difluorobenzoyl)-4-(3-methyl-2,6-dioxo-3,6-dihydropyrimidin-1(2H)-yl)-L-phenylalanine]: the IC50 was at most 10 nM.

On to `Cn1ccc(=O)n(-c2ccc(C[C@H](NC(=O)c3c(F)cc(NS(=O)(=O)c4ccncc4)cc3F)C(=O)O)cc2)c1=O` [Example 171, N-{2,6-Difluoro-4-[(pyridin-4-yl-sulfonyl)amino]benzoyl}-4-(3-methyl-2,6-dioxo-3,6-dihydropyrimidin-1 (2H)-yl)-L-phenylalanine], for which the IC50 lay in the range of 10 to 50 nM.

`Cn1ccc(=O)n(-c2ccc(C[C@H](NC(=O)c3c(F)cc(NS(=O)(=O)c4ccc(C(=O)NCC5CCOCC5)cc4)cc3F)C(=O)O)cc2)c1=O` [Example 172, N-(2,6-Difluoro-4-{[(4-{[(tetrahydro-2H-pyran-4-yl-methyl)amino]carbonyl}phenyl)sulfonyl]amino}benzoyl)-4-(3-methyl-2,6-dioxo-3,6-dihydropyrimidin-1(2H)-yl)-L-phenylalanine]: the IC50 is at most 10 nM.

Take `Cn1ccc(=O)n(-c2ccc(C[C@H](NC(=O)c3c(F)cc(NS(=O)(=O)c4ccc(C(=O)NC(C)(C)C)nc4)cc3F)C(=O)O)cc2)c1=O` [Example 173, N-{4-[({6-[(tert-Butylamino)carbonyl]pyridin-3-yl}sulfonyl)amino]-2,6-difluorobenzoyl}-4-(3-methyl-2,6-dioxo-3,6-dihydropyrimidin-1(2H)-yl)-L-phenylalanine]: the IC50 was at most 10 nM.

In the case of `Cn1ccc(=O)n(-c2ccc(C[C@H](NC(=O)c3c(F)cc(NS(=O)(=O)c4ccc(C(=O)C5CC5)cc4)cc3F)C(=O)O)cc2)c1=O` [Example 174, N-[4-({[4-(Cyclopropylcarbonyl)phenyl]sulfonyl}amino)-2,6-difluorobenzoyl]-4-(3-methyl-2,6-dioxo-3,6-dihydropyrimidin-1(2H)-yl)-L-phenylalanine], the IC50 lay within 10 to 50 nM.

`Cc1cn(C)c(=O)n(-c2ccc(C[C@H](NC(=O)c3ccc(NS(=O)(=O)c4ccc(C(=O)NC(C)(C)C)nc4)cc3F)C(=O)O)cc2)c1=O` [Example 175, N-{4-[({6-[(tert-Butylamino)carbonyl]pyridin-3-yl}sulfonyl)amino]-2-fluorobenzoyl}-4-(3,5-dimethyl-2,6-dioxo-3,6-dihydropyrimidin-1(2H)-yl)-L-phenylalanine]: the IC50 is 10 to 50 nM.

For `CNCc1ccc(S(=O)(=O)Nc2cc(F)c(C(=O)N[C@@H](Cc3ccc(-n4c(=O)ccn(C)c4=O)cc3)C(=O)O)c(F)c2)cc1` [Example 176, N-{2,6-Difluoro-4-[({4-[(methylamino)methyl]phenyl}sulfonyl)amino]benzoyl}-4-(3-methyl-2,6-dioxo-3,6-dihydropyrimidin-1(2H)-yl)-L-phenylalanine], the IC50 was at most 10 nM.

With `CNCc1ccc(S(=O)(=O)Nc2ccc(C(=O)N[C@@H](Cc3ccc(-n4c(=O)c5ccncc5n(C)c4=O)cn3)C(=O)O)c(F)c2)cc1` [Example 177, N-{2-Fluoro-4-[({4-[(methylamino)methyl]phenyl}sulfonyl)amino]benzoyl}-3-[5-(1-methyl-2,4-dioxo-1,4-dihydropyrido[3,4-d]pyrimidin-3(2H)-yl)pyridin-2-yl]-L-alanine], the IC50 lay within 10 to 50 nM.

The values are drawn from patent US9533985B2, “Sulfonamide derivative and medicinal use thereof” (EA Pharma Co., Ltd., priority 2012, dated 2017).
